Source: ChEMBL document CHEMBL1130478, “Mono and bis double ester prodrugs of novel aminomethyl-THF 1-methylcarbapenems” (Bioorg Med Chem Lett, 1997)

Key:
Format in all cases: functional
[1] = tested on: Mus musculus; assay: Antibacterial activity against Escherichia coli (311) infection in mice after single oral dose, activity expressed as ED50
[2] = tested on: Mus musculus; assay: Antibacterial activity against Escherichia coli (311) infection in mice after single subcutaneous dose, activity expressed as ED50; settings: sc
[3] = tested on: Acinetobacter calcoaceticus; assay: In vitro antibacterial activity against Acinetobacter calcoaceticus (GC 756) following preincubation in mouse serum
[4] = tested on: Citrobacter freundii; assay: In vitro antibacterial activity against C. freundii(GC 2211) following pre-incubation in mouse serum
[5] = tested on: Citrobacter freundii; assay: In vitro antibacterial activity against C. freundii(GC 2211) without preincubation in mouse serum
[6] = biological target: T1, Dipeptidase 1 (Sus scrofa) (UniProt P22412); assay: Relative hydrolysis by hog Dehydropeptidase
T1 sequence (whole entry): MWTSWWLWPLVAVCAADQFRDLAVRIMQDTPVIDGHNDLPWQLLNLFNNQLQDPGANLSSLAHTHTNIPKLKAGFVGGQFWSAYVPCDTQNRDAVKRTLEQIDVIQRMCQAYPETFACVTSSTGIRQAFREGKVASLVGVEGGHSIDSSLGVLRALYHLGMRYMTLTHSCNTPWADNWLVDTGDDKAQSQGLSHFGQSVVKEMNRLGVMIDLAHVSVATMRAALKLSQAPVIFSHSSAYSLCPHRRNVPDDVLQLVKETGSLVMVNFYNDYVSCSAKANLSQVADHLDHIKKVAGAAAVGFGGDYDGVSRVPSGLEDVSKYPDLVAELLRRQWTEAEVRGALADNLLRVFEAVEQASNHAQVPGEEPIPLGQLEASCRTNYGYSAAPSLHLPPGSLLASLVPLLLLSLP

[7] = tested on: Enterococcus faecalis; assay: In vitro antibacterial activity against E. faecalis(GC 842) without pre-incubation in mouse serum
[8] = tested on: Enterococcus faecalis; assay: In vitro antibacterial activity against E. faecalis(GC 842) following pre-incubation in mouse serum
[9] = tested on: Enterobacter cloacae; assay: In vitro antibacterial activity against E. cloacae(GC 2209) following preincubation in mouse serum
[10] = tested on: Enterobacter cloacae; assay: In vitro antibacterial activity against E. cloacae(GC 2209) without pre-incubation in mouse serum
[11] = tested on: Enterococcus faecium; assay: In vitro for antibacterial activity against E. faecium(GC 1182) without pre-incubation in mouse serum
[12] = tested on: Escherichia coli; assay: In vitro antibacterial activity expressed as MIC against Escherichia coli (ATCC 25922) following pre-incubation in mouse serum
[13] = tested on: Escherichia coli; assay: In vitro antibacterial activity expressed as MIC against Escherichia coli (ATCC 25922) without pre-incubation in mouse serum
[14] = tested on: Escherichia coli; assay: In vitro antibacterial activity expressed as MIC against E. coli(GC 1792) following pre-incubation in mouse serum
[15] = tested on: Escherichia coli; assay: In vitro antibacterial activity expressed as MIC against E. coli(GC 1792) without pre-incubation in mouse serum
[16] = tested on: Escherichia coli; assay: In vitro antibacterial activity expressed as MIC against E. coli(GC 2205) following pre-incubation in mouse serum
[17] = tested on: Escherichia coli; assay: In vitro antibacterial activity expressed as MIC against E. coli(GC 2205) without pre-incubation in mouse serum
[18] = tested on: Morganella morganii; assay: In vitro antibacterial activity against M. morganii(GC 2213) following pre-incubation in mouse serum
[19] = tested on: Morganella morganii; assay: In vitro antibacterial activity against M. morganii(GC 2213) without pre-incubation in mouse serum
[20] = tested on: Pseudomonas aeruginosa; assay: In vitro antibacterial activity against Pseudomonas aeruginosa (ATCC 27853) following pre-incubation in mouse serum
[21] = tested on: Pseudomonas aeruginosa; assay: In vitro antibacterial activity against Pseudomonas aeruginosa (ATCC 27853) without pre-incubation in mouse serum
[22] = tested on: Pseudomonas aeruginosa; assay: In vitro antibacterial activity against P. aeruginosa(GC 1544 oprd) without pre-incubation in mouse serum
[23] = tested on: Staphylococcus aureus; assay: In vitro antibacterial activity against S aureus(ATCC 29213) following preincubation in mouse serum
[24] = tested on: Staphylococcus aureus; assay: In vitro antibacterial activity against S. aureus(ATCC 29213) without pre-incubation in mouse serum
[25] = tested on: Staphylococcus aureus; assay: In vitro antibacterial activity against S. aureus(GC 2220 MRSA) without pre-incubation in mouse serum
[26] = tested on: Stenotrophomonas maltophilia; assay: In vitro antibacterial activity against X. maltophilia(GC 562) without pre-incubation in mouse serum
[27] = tested on: Staphylococcus aureus; assay: In vitro antibacterial activity against S. aureus(GC 2220 MRSA) following pre-incubation in mouse serum
[28] = tested on: Pseudomonas aeruginosa; assay: In vitro antibacterial activity against P. aeruginosa(GC 1544 oprd) following pre-incubation in mouse serum
[29] = tested on: Stenotrophomonas maltophilia; assay: In vitro antibacterial activity against X. maltophilia(GC 562) following pre-incubation in mouse serum
[30] = tested on: Acinetobacter calcoaceticus; assay: In vitro antibacterial activity against Acinetobacter calcoaceticus (GC 756) without preincubation in mouse serum
[31] = tested on: Enterococcus faecium; assay: In vitro for antibacterial activity against E. faecium(GC 1182) following pre-incubation in mouse serum

MIC [3] [µg/mL]	MIC [4] [µg/mL]	MIC [5] [µg/mL]	Relative hydrolysis [6]	MIC [7] [µg/mL]	MIC [8] [µg/mL]	MIC [9] [µg/mL]	MIC [10] [µg/mL]	MIC [11] [µg/mL]	MIC [12] [µg/mL]	MIC [13] [µg/mL]	MIC [14] [µg/mL]	MIC [15] [µg/mL]	MIC [16] [µg/mL]	MIC [17] [µg/mL]	MIC [18] [µg/mL]	MIC [19] [µg/mL]	MIC [20] [µg/mL]	Structure (SMILES)	ED50 [1] [mg/kg]	ED50 [2] [mg/kg]	also measured
																		CC(OC(=O)OC1=CCCCC1)OC(=O)C1=C(S[C@@H]2CCO[C@@H]2CNC(=O)OCOC(=O)C(C)C)[C@H](C)C2[C@@H]([C@@H](C)O)C(=O)N12 (some centres not stated)	1.5	1.9	
																		CCOC(=O)OCOC(=O)NCC1OCCC1SC1=C(C(=O)OCOC(=O)C(C)C)N2C(=O)[C@H]([C@@H](C)O)C2[C@H]1C (some centres not stated)	0.87	0.37	
																		CC(C)C(=O)OCOC(=O)NC[C@H]1OCC[C@H]1SC1=C(C(=O)OCOC(=O)C(C)(C)C)N2C(=O)[C@H]([C@@H](C)O)C2[C@H]1C (some centres not stated)	1.6	1.9	
																		C[C@H]1C(S[C@@H]2CCO[C@@H]2CNC(=O)OCOC(=O)c2ccccc2)=C(C(=O)[O-])N2C(=O)[C@H]([C@@H](C)O)C12.[Na+] (some centres not stated)	2.9	0.32	
																		CCOC(=O)OC(C)OC(=O)C1=C(S[C@@H]2CCO[C@@H]2CN)[C@H](C)C2[C@@H]([C@@H](C)O)C(=O)N12.Cl (some centres not stated)	25	1.8	
																		C[C@@H](O)[C@H]1C(=O)N2C(C(=O)O)=C(SCCNC=N)C[C@H]12 [IMIPENEM ANHYDROUS]	79	0.7	
2	0.12	4	5.9	2	1	0.06	2	128	< 0.06	0.5	< 0.06	0.5	< 0.06	< 0.06	0.5	2	8	CCCC(=O)OCOC(=O)NC[C@H]1OCC[C@H]1SC1=C(C(=O)[O-])N2C(=O)[C@H]([C@@H](C)O)C2[C@H]1C.[Na+] (some centres not stated)	3.4	0.26	MIC [21]: 64 µg/mL; MIC [22]: > 128 µg/mL; MIC [23]: 0.03 µg/mL; MIC [24]: 0.12 µg/mL; MIC [25]: 8 µg/mL; MIC [26]: > 128 µg/mL; MIC [27]: 1 µg/mL; MIC [28]: 16 µg/mL; MIC [29]: > 128 µg/mL; MIC [30]: 32 µg/mL; MIC [31]: 64 µg/mL
2	0.25	4	11	16	2	0.12	2	128	< 0.06	0.5	< 0.06	0.5	< 0.06	1	0.5	16	8	CCOC(=O)OCOC(=O)C1=C(S[C@@H]2CCO[C@@H]2CN)[C@H](C)C2[C@@H]([C@@H](C)O)C(=O)N12.Cl (some centres not stated)	8.2	0.62	MIC [21]: 128 µg/mL; MIC [22]: > 128 µg/mL; MIC [23]: 0.03 µg/mL; MIC [24]: 1 µg/mL; MIC [25]: 64 µg/mL; MIC [26]: > 128 µg/mL; MIC [27]: 2 µg/mL; MIC [28]: 32 µg/mL; MIC [29]: > 128 µg/mL; MIC [30]: 64 µg/mL; MIC [31]: 128 µg/mL
																		CCCC(=O)OCOC(=O)NC[C@H]1OCC[C@H]1SC1=C(C(=O)OCOC(=O)OCC)N2C(=O)[C@H]([C@@H](C)O)C2[C@H]1C (some centres not stated)	1.3	0.49	
4	0.25	2	2.9	4	1	0.06	1	> 128	< 0.06	0.25	< 0.06	0.5	< 0.06	0.12	0.5	4	8	CC(C)C(=O)OCOC(=O)NC[C@H]1OCC[C@H]1SC1=C(C(=O)[O-])N2C(=O)[C@H]([C@@H](C)O)C2[C@H]1C.[Na+] (some centres not stated)	5.1	0.59	MIC [21]: 64 µg/mL; MIC [22]: > 128 µg/mL; MIC [23]: 0.03 µg/mL; MIC [24]: 0.25 µg/mL; MIC [25]: 8 µg/mL; MIC [26]: > 128 µg/mL; MIC [27]: 2 µg/mL; MIC [28]: 16 µg/mL; MIC [29]: > 128 µg/mL; MIC [30]: 32 µg/mL; MIC [31]: 64 µg/mL
